Test results taken from patent US8198325B2, “Unsaturated alkyl esters of 5-aminolevulinic acid, their preparation and their use” (Industry Foundation of Chonnam National University, priority 2006, dated 2012).

Key:
[1] = system: Human epidermal keratinocyte (HEK); experiment: Cytotoxicity test (cell survival), MTT assay, HEK; type: cell-based; conditions: 24 hours; for MTT absorbance (OD): 570 nm; for Cell survival Avg (%) ± SD (%): Table 3; for activity at 10 µM / activity at 2000 µM / activity at 50 µM / activity at 100 µM / activity at 500 µM / activity at 1000 µM / activity at 5000 µM: Homo sapiens, Table 2, read-out: Cell survival (% of control C, in brackets); for activity at 10 µM: HEK001, 0.01 mM; for activity at 2000 µM: HEK2, 2 mM; for activity at 50 µM / activity at 100 µM / activity at 500 µM / activity at 1000 µM / activity at 5000 µM: Keratinocyte
Description: (§1) 3. Cytotoxicity Test (Cell Survival Test)
(§2) Cytotoxicity was conducted through an MTT assay (Chemicon, Serologicals Corporation, USA) as follows.
(§3) Cells were seeded at a density of 3×10^4 cells/well in 96-well plates (Nunc Do, Denmark).
(§4) When the cells were at a confluence of about 60˜70%, 24 hours after seeding, the media was exchanged for 100 μl of fresh, serum-free media containing various respective concentrations of ALA or ALA-ester, after which the cells were incubated for an additional 24 hours.
(§5) An MTT solution (0.5 mg/mL) was added in an amount of […] to each well, followed by incubation for 4 hours to form formazan crystals. A color-developing solution (isopropanol with 0.04 N HCl) was added in an amount of […] per well to solubilize the formazan crystals.
(§6) The plates were measured for absorbance at 570 nm using an ELISA reader (EMAX, Molecular Device, USA).
(1) Human Epidermal Keratinocyte (HEK)
Cell survival of the human epidermal keratinocytes treated with ALA esters of the present invention and with ALA was compared. The results are summarized in Tables 1 and 2, which are represented in different manners depending on the measurements.

[2] = system: A431 cells; experiment: Fluorescence spectroscopy of PpIX synthesis in A431 cells (FIG. 1); type: cell-based; conditions: 4 hours incubation, excitation 405 nm, emission 605 nm
Description: 4. Fluorescence Spectroscopy
The synthesis of PpIX, induced by ALA and unsaturated alkyl esters of ALA in cells and skin tissues, was quantified using fluorescence spectroscopy.
The intensity of PpIX was measured on a fluorescence spectrophotometer (Uvikon, model 943) with excitation at 408 nm.
Each cell line was plated at a density of 2×10^5 cells in a 10 cm^2-dish (Falcon), and when the cells reached a confluent state of 70˜80%, serum-free media containing various concentrations (0.001˜1 mM) of ALA or ALA esters was added to the cells, followed by incubation for 4 hours.
After being washed once with PBS, the cells were detached with a 50% methanol solution containing 1M […] (HClO4) and scraped off using a Costar cell scraper.
The cells thus harvested were incubated for 5 min and centrifuged.
The fluorescence of the supernatant thus obtained was determined using a spectrofluorometer with excitation at 405 nm and emission at 605 nm.
The results are graphed in FIGS. 1 and 2.

[3] = system: Human dermal fibroblast (hF); experiment: Cytotoxicity test (cell survival), MTT assay, hF; type: cell-based; conditions: 24 hours
Description: as §1, §2, §3, §4, §5, §6
(2) Human Dermal Fibroblast (hF)

[4] = system: Malignant melanoma (TMX 13); experiment: Cytotoxicity test (cell survival), MTT assay, TXM 13; type: cell-based; conditions: 24 hours
Description: as §1, §2, §3, §4, §5, §6
(4) Malignant Melanoma (TMX 13)

[5] = system: skin of ICR mice (epidermis, sebaceous gland); experiment: Cell death in skin tissue after ointment and LED irradiation, H&E (FIGS. 9, 10); type: in vivo
Description: Ointments comprising ALA or the ALA esters of the present invention at various concentrations (5˜15%) were applied in a predetermined amount ([…]) to the back of shaved ICR mice.
1 and 4 hours after the application, the back was irradiated with LED visible light (dose 25 J/cm^2).
24, 48 and 72 hours after the irradiation, skin samples were taken from the back of the mice, stained with hematoxylin-eosin (H&E) and observed for cell death.

[6] = system: Squamous cell carcinoma (A431); experiment: Cytotoxicity test (cell survival), MTT assay, A431; type: cell-based; conditions: 24 hours
Description: as §1, §2, §3, §4, §5, §6
(3) Squamous Cell Carcinoma (A431)

SMILES | MTT absorbance (OD) ([1]; 0.01 mM) | MTT absorbance (OD) ([1]; 0.05 mM) | Cell survival Avg (%) ± SD (%) ([1]; 0.05 mM) | MTT absorbance (OD) ([1]; 0.1 mM) | Cell survival Avg (%) ± SD (%) ([1]; 0.1 mM) | MTT absorbance (OD) ([1]; 0.5 mM) | Cell survival Avg (%) ± SD (%) ([1]; 0.5 mM) | MTT absorbance (OD) ([1]; 1 mM) | Cell survival Avg (%) ± SD (%) ([1]; 1 mM) | MTT absorbance (OD) ([1]; 2 mM) | Cell survival Avg (%) ± SD (%) ([1]; 2 mM) | MTT absorbance (OD) ([1]; 5 mM) | activity at 10 µM [1] [%] | activity at 2000 µM [1] [%] | activity at 50 µM ([1]; 0.05 mM) [%] | activity at 100 µM ([1]; 0.1 mM) [%] | activity at 500 µM ([1]; 0.5 mM) [%] | activity at 1000 µM ([1]; 1 mM) [%] | activity at 5000 µM ([1]; 5 mM) [%] | Cell survival Avg (%) ± SD (%) ([3]; 0.01 mM) | further results
COC(=O)CCC(=O)CN [ALA-1, 5-Aminolevulinic acid methyl ester, reference compound] | 2.952 | 3.482 | 94.01 ± 0.71 | 3.313 | 125.58 ± 1.05 | 3.421 | 88.14 ± 0.95 | 3.435 | 72.02 ± 3.52 | 3.093 | 83.69 ± 1.54 | 2.398 | 88.8 | 93 | 104 | 99.6 | 103 | 103 | 69 | 110.33 ± 15.01 | Cell survival Avg (%) ± SD (%) ([1]; 0.01 mM): 116.69 ± 1%; PpIX synthesis compared with ALA [2]: greater PpIX synthesis in A431 cells than did ALA; Cell survival Avg (%) ± SD (%) ([3]; 0.05 mM): 116.86 ± 17.63%; Cell survival Avg (%) ± SD (%) ([3]; 0.1 mM): 110.44 ± 17.98%; Cell survival Avg (%) ± SD (%) ([3]; 0.5 mM): 113 ± 22.58%; Cell survival Avg (%) ± SD (%) ([3]; 1 mM): 120.48 ± 10.91%; Cell survival Avg (%) ± SD (%) ([3]; 2 mM): 87.65 ± 14.77%; Cell survival Avg ± SD (%) ([4]; TXM 13, 0.01 mM): 104.69 ± 6.64%; Cell survival Avg ± SD (%) ([4]; TXM 13, 0.05 mM): 100.34 ± 4.39%; Cell survival Avg ± SD (%) ([4]; TXM 13, 0.1 mM): 87.37 ± 8.13%; Cell survival Avg ± SD (%) ([4]; TXM 13, 0.5 mM): 64.59 ± 3.95%; Cell survival Avg ± SD (%) ([4]; TXM 13, 1 mM): 69.86 ± 8.83%; Cell survival Avg ± SD (%) ([4]; TXM 13, 2 mM): 69.94 ± 13.42%; Sebaceous gland morphology after irradiation ([5]; 24 hours after visible light 25 J/cm^2, FIG. 10): destroyed partially or wholly; Epidermis histology (H&E) after irradiation ([5]; 48 hours after visible light 25 J/cm^2, FIGS. 9B and 9C): both necrosis and rejuvenation; Cell survival Avg (%) ± SD (%) ([6]; A431, 0.01 mM): 101.03 ± 0.71%; Cell survival Avg (%) ± SD (%) ([6]; A431, 0.05 mM): 103.06 ± 1.05%; Cell survival Avg (%) ± SD (%) ([6]; A431, 0.5 mM): 101.75 ± 3.52%; Cell survival Avg (%) ± SD (%) ([6]; A431, 1 mM): 101.45 ± 1.54%; Cell survival Avg (%) ± SD (%) ([6]; A431, 2 mM): 98.4 ± 1.2%
C=CCCOC(=O)CCC(=O)CN [ALA-3, 5-Aminolevulinic acid 3-butenyl ester] | 2.919 | 3.57 | 94.01 ± 0.59 | 3.413 | 125.58 ± 0.51 | 2.838 | 88.14 ± 0.51 | 2.592 | 72.02 ± 3.82 | 2.185 | 83.69 ± 4.75 | 2.101 | 83.8 | 63.1 | 103 | 98.2 | 81.8 | 74.9 | 60.5 | 114.28 ± 5.4 | Cell survival Avg (%) ± SD (%) ([1]; 0.01 mM): 116.69 ± 0.69%; Cell survival Avg (%) ± SD (%) ([3]; 0.05 mM): 126.76 ± 3.88%; Cell survival Avg (%) ± SD (%) ([3]; 0.1 mM): 115.65 ± 6.85%; Cell survival Avg (%) ± SD (%) ([3]; 0.5 mM): 110.21 ± 4.21%; Cell survival Avg (%) ± SD (%) ([3]; 1 mM): 96.59 ± 16.88%; Cell survival Avg (%) ± SD (%) ([3]; 2 mM): 94.97 ± 9.7%; Cell survival Avg ± SD (%) ([4]; TXM 13, 0.01 mM): 102.16 ± 10.55%; Cell survival Avg ± SD (%) ([4]; TXM 13, 0.05 mM): 95.03 ± 10%; Cell survival Avg ± SD (%) ([4]; TXM 13, 0.1 mM): 96.89 ± 7.99%; Cell survival Avg ± SD (%) ([4]; TXM 13, 0.5 mM): 90.58 ± 3.8%; Cell survival Avg ± SD (%) ([4]; TXM 13, 1 mM): 92.34 ± 4.31%; Cell survival Avg ± SD (%) ([4]; TXM 13, 2 mM): 78.81 ± 6.22%; Cell survival Avg (%) ± SD (%) ([6]; A431, 0.01 mM): 104.08 ± 0.59%; Cell survival Avg (%) ± SD (%) ([6]; A431, 0.05 mM): 105.59 ± 0.51%; Cell survival Avg (%) ± SD (%) ([6]; A431, 0.1 mM): 105.48 ± 0.51%; Cell survival Avg (%) ± SD (%) ([6]; A431, 0.5 mM): 97.46 ± 3.82%; Cell survival Avg (%) ± SD (%) ([6]; A431, 1 mM): 97.65 ± 4.75%; Cell survival Avg (%) ± SD (%) ([6]; A431, 2 mM): 102.85 ± 1.53%
C=CCCCOC(=O)CCC(=O)CN [ALA-4, 5-Aminolevulinic acid 4-pentenyl ester] | 2.8 | 2.603 | 66.21 ± 0.59 | 2.98 | 53.63 ± 0.51 | 2.561 | 50.17 ± 0.51 | 2.475 | 57.17 ± 1.60 | 2.407 | 44.82 ± 3.43 | 1.354 | 77.3 | 66.3 | 71.6 | 82 | 70.5 | 68.3 | 37.1 | 101.13 ± 13.45 | PpIX synthesis compared with ALA [2]: greater PpIX synthesis in A431 cells than did ALA; Cell survival Avg (%) ± SD (%) ([3]; 0.05 mM): 114.49 ± 17.1%; Cell survival Avg (%) ± SD (%) ([3]; 0.1 mM): 103.35 ± 14.09%; Cell survival Avg (%) ± SD (%) ([3]; 0.5 mM): 95.81 ± 10.6%; Cell survival Avg (%) ± SD (%) ([3]; 1 mM): 100.32 ± 6.36%; Cell survival Avg (%) ± SD (%) ([3]; 2 mM): 93.13 ± 8.07%; Cell survival Avg ± SD (%) ([4]; TXM 13, 0.01 mM): 96.3 ± 14.69%; Cell survival Avg ± SD (%) ([4]; TXM 13, 0.05 mM): 83.42 ± 12.09%; Cell survival Avg ± SD (%) ([4]; TXM 13, 0.1 mM): 72.55 ± 9.25%; Cell survival Avg ± SD (%) ([4]; TXM 13, 0.5 mM): 75.01 ± 13.79%; Cell survival Avg ± SD (%) ([4]; TXM 13, 1 mM): 60.95 ± 8.31%; Cell survival Avg ± SD (%) ([4]; TXM 13, 2 mM): 49.85 ± 53.24%; Cell survival Avg (%) ± SD (%) ([6]; A431, 0.01 mM): 101.68 ± 0.81%; Cell survival Avg (%) ± SD (%) ([6]; A431, 0.05 mM): 102.51 ± 0.54%; Cell survival Avg (%) ± SD (%) ([6]; A431, 0.1 mM): 93.24 ± 2.17%; Cell survival Avg (%) ± SD (%) ([6]; A431, 0.5 mM): 80.91 ± 1.6%; Cell survival Avg (%) ± SD (%) ([6]; A431, 1 mM): 80.11 ± 3.43%; Cell survival Avg (%) ± SD (%) ([6]; A431, 2 mM): 84.57 ± 1.77%
